The values below are quoted from earlier work in US8168241B2, “Performance-enhancing dietary supplement” (Reliv International, Inc., priority 1998, dated 2012).

The conditions of data set [1]: co-administration of piper nigrum extract; double blind studies.
For data set [2] the following is noted: resulting from the ingestion of CLA.

Turning to `COC1=C(OC)C(=O)C(C/C=C(\C)CC/C=C(\C)CC/C=C(\C)CC/C=C(\C)CC/C=C(\C)CC/C=C(\C)CC/C=C(\C)CC/C=C(\C)CC/C=C(\C)CCC=C(C)C)=C(C)C1=O` [coenzyme Q10], the bioavailability entry in data set [1] is reported as “significantly increased”. In the case of conjugated linoleic acid [CLA], in data set [2], the “reduction in body fat” value was at most 20%.
